Reference: US9789046B2, “Water-based resin nail polish” (LES FINS NETWORK TECHNOLOGY CO., LTD., priority 2015, dated 2017)
≈ marks a conversion by molar mass, not a printed value.

Columns and labels:
Test in all cases: Antifungal activity experiment, 96-pore plate, MTT, OD 570 nm
Type in all cases: cell-based
Settings in all cases: MH medium, 37° C., 24 h, read-out: semi-inhibition rate MIC50
[1] = test system: flocculent trichomementagrophytes
Description: (§1) Bacteria (Trichophyton rubrum, Trichophyton gypsum and flocculent trichomementagrophytes) are suspended in an MH culture medium, the dispersion concentration is about 10^5 cfu·mL−1, the bacterial solution is added onto 96-pore plate (100 μL of the bacterial solution is added into each pore), the culture medium is used as a blank control, DMSO is used for substituting a test material as a negative control, and itraconazole (Xian-Janssen Pharmaceutical Ltd.) is used as a positive control. […] The 96-pore plate is placed into an incubator at 37° C. to be cultured for 24 h, then 25 μL of the prepared solution containing 4 mg of PBS of MTT for each mL is added into each hole, and the solution is cultured for 4 h under a same condition, 100 μL of SDS lysis solution (including 95 mL of triple-distilled, 10 g of SDS, 5 mL of isopropyl alcohol and 0.1 mL of concentrated hydrochloric acid) is added into each pore and then is cultured for 12 h. An enzyme labeling instrument is used for determining an OD value at 570 nm, and a percent inhibition rate is calculated according to the formula equation: […]

Trichophyton gypsum = test system: Trichophyton gypsum
Description: as §1

Trichophyton rubrum = test system: Trichophyton rubrum
Description: as §1

| SMILES | MIC50 [1] | MIC50 (Trichophyton gypsum) | MIC50 (Trichophyton rubrum) |
| --- | --- | --- | --- |
| COc1ccc(-c2cc(=O)c3cc(O)c(OC)c4c3n2OC2OC(C)=C(O)C=C2C4)cc1 (stereo not drawn) [compound of formula I] | 0.82 µg/mL | 0.6 µg/mL | 0.63 µg/mL |
| CCC(C)n1ncn(-c2ccc(N3CCN(c4ccc(OCC5COC(Cn6cncn6)(c6ccc(Cl)cc6Cl)O5)cc4)CC3)cc2)c1=O (stereo not drawn) [itraconazole] | 0.65 µg/mL (≈ 0.921 µM) | 0.7 µg/mL (≈ 0.992 µM) | 0.63 µg/mL (≈ 0.893 µM) |
